GI50 and TGI data for 6 compounds are collected here from PubChem BioAssay (NCI).

Some test systems named below: CCRF-CEM leukemia; HCT-15 colon; HS 578T breast; HT29 colon; MALME-3M melanoma; NCI-H226 lung; NCI-H23 lung; NCI/ADR-RES ovarian; PC-3 prostate; SF-295 CNS.
Common to all, as to experiment: NCI-60 cell line screen, 48 h

Values joined by “and” are separate entries in the source; they are usually repeats but may differ in a detail not shown here. Equal entries are not always repeated.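 Following 48 hours of exposure in 96-well plates, responses at five concentrations were used to interpolate endpoints linearly. GI50: concentration for 50% inhibition of growth. TGI is the concentration that stops growth completely.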 Bounds are passed on as bounds.

With `CCc1ccc2c(c1)N(CCO)C1=C(C(=O)OC1)C2c1cc(OC)c(OC)c(OC)c1` (stereo not given), the GI50 in the assay on CCRF-CEM leukemia is 0.185 µM; in the assay with HCT-15 colon it was 0.425 µM; in the assay on HS 578T breast, 0.218 µM; with HT29 colon, 0.143 µM; in the assay on MALME-3M melanoma it was 0.218 µM; in the assay on NCI-H226 lung, 0.178 µM. Besides, the GI50 was 0.219 µM in the assay with NCI-H23 lung, 0.974 µM in the assay on NCI/ADR-RES ovarian, 0.196 µM in the assay on PC-3 prostate and 0.126 µM in the assay on SF-295 CNS. In addition, the TGI with CCRF-CEM leukemia was greater than 50 µM; in the assay on HCT-15 colon, greater than 50 µM; with HS 578T breast it was greater than 50 µM; in the assay with HT29 colon it was 0.447 µM; in the assay on MALME-3M melanoma, greater than 50 µM; in the assay on NCI-H226 lung, 2.44 µM. Besides, the TGI in the assay on NCI-H23 lung is greater than 14.4 µM; in the assay on NCI/ADR-RES ovarian it was 6.65 µM; with PC-3 prostate it was greater than 50 µM; in the assay on SF-295 CNS, 0.469 µM.

`CC(=O)Oc1cc2cnc3c4cc(OC(C)=O)c(OC(C)=O)cc4ccc3c2cc1OC(C)=O`: the GI50 was 0.608 µM with CCRF-CEM leukemia; 1.06 µM in the assay with HCT-15 colon; 1.01 µM with HS 578T breast; 4.18 µM in the assay with HT29 colon; 1.55 µM with MALME-3M melanoma; 2.04 µM in the assay with NCI-H226 lung. Further, the GI50 in the assay on NCI-H23 lung is 2.54 µM; with NCI/ADR-RES ovarian, 1.88 µM; in the assay with PC-3 prostate, 3.27 µM; in the assay with SF-295 CNS it was 3.36 µM. Besides, the TGI is greater than 100 µM in the assay on CCRF-CEM leukemia; greater than 100 µM in the assay with HCT-15 colon; 9.56 µM in the assay with HS 578T breast; greater than 100 µM in the assay on HT29 colon; 9.33 µM in the assay with MALME-3M melanoma; 8.91 µM with NCI-H226 lung. Besides, the TGI in the assay on NCI-H23 lung, in the assay on NCI/ADR-RES ovarian, with PC-3 prostate and in the assay on SF-295 CNS was greater than 100 µM in each case.

Regarding `Cc1nc2ccccc2c(=O)n1/N=C(\N=Nc1cc(Cl)ccc1Cl)c1ccccc1`, the TGI with CCRF-CEM leukemia is greater than 100 µM; with HCT-15 colon, greater than 100 µM; in the assay on HS 578T breast, greater than 100 µM; with HT29 colon, greater than 88.7 µM; in the assay on MALME-3M melanoma, greater than 100 µM; in the assay on NCI-H226 lung, greater than 100 µM. Also, the TGI with NCI-H23 lung, with NCI/ADR-RES ovarian, in the assay on PC-3 prostate and in the assay on SF-295 CNS was greater than 100 µM throughout.

Consider `C#C[C@]1(O)CC[C@H]2[C@@H]3CC=C4c5nc(N)sc5CC[C@]4(C)[C@H]3CC[C@@]21C`, for which the GI50 with CCRF-CEM leukemia is 2.79 µM; in the assay on HCT-15 colon it was 3.2 µM; in the assay on HS 578T breast, 2.55 µM; in the assay on HT29 colon, 3.04 µM; in the assay on MALME-3M melanoma, 2.83 µM; with NCI-H226 lung, 2.76 µM. Also, the GI50 was 4.38 µM with NCI-H23 lung, 3.19 µM in the assay on NCI/ADR-RES ovarian, 3.66 µM in the assay with PC-3 prostate and 1.98 µM in the assay on SF-295 CNS. The TGI in the assay with CCRF-CEM leukemia was 14.9 µM; with HCT-15 colon it was 17.3 µM; in the assay on HS 578T breast it was 7.94 µM; in the assay on HT29 colon, 12.4 µM; in the assay with MALME-3M melanoma it was 8.98 µM; in the assay on NCI-H226 lung it was 7.56 µM. For the same compound, the TGI with NCI-H23 lung was 24.3 µM; with NCI/ADR-RES ovarian, 16 µM; with PC-3 prostate it was 19.7 µM; in the assay with SF-295 CNS, 4.05 µM.

With `COc1cc2ncnc(Oc3cccc(NC(=O)Nc4cc(C(C)(C)C(F)(F)F)on4)c3)c2cc1OC`, the GI50 is 3.06 µM and 3.26 µM in the assay on CCRF-CEM leukemia; 2.16 µM and 2.67 µM in the assay on HCT-15 colon; 1.77 µM and 1.47 µM in the assay on HS 578T breast; 0.197 µM and 0.215 µM in the assay on HT29 colon; 0.0645 µM and 0.0851 µM in the assay on MALME-3M melanoma; 1.13 µM and 1.67 µM in the assay with NCI-H226 lung. Further, the GI50 with NCI-H23 lung is 1.28 µM and 1.43 µM; in the assay with NCI/ADR-RES ovarian, 2.99 µM and 2.86 µM; in the assay on PC-3 prostate, 2.65 µM and 3.68 µM; in the assay on SF-295 CNS it was 2.91 µM and 2.98 µM. In addition, the TGI in the assay on CCRF-CEM leukemia was greater than 100 µM; in the assay on HCT-15 colon it was 12.5 µM and > 10 µM; in the assay with HS 578T breast, 10.2 µM and > 7.23 µM; in the assay on HT29 colon, 6.9 µM and > 10 µM; in the assay on MALME-3M melanoma, 0.929 µM and 1.17 µM; in the assay on NCI-H226 lung it was 33.7 µM and > 10 µM. Moreover, the TGI in the assay on NCI-H23 lung is 11.7 µM and > 10 µM; in the assay with NCI/ADR-RES ovarian it was 24.6 µM and > 10 µM; in the assay on PC-3 prostate, 19.4 µM and > 10 µM; in the assay on SF-295 CNS it was 13.1 µM and > 10 µM.

For the compound `COc1ccc2c(c1)C(=O)c1c-2c(OCCN(C)C)nc2cc(OC)c(OC)cc12`, the GI50 is 0.0714 µM in the assay on CCRF-CEM leukemia; 9.67 µM in the assay with HCT-15 colon; 12.8 µM in the assay on HS 578T breast; 1.76 µM in the assay with HT29 colon; 12.1 µM with MALME-3M melanoma; 2.95 µM with NCI-H226 lung. Moreover, the GI50 in the assay on NCI-H23 lung is 9.32 µM; with NCI/ADR-RES ovarian, 4.58 µM; in the assay with PC-3 prostate, 3.76 µM; in the assay with SF-295 CNS it was 0.0293 µM. Besides, the TGI was determined as 3.91 µM with CCRF-CEM leukemia; 23.6 µM with HCT-15 colon; 35.7 µM in the assay with HS 578T breast; 18.1 µM in the assay on HT29 colon; 28.3 µM in the assay on MALME-3M melanoma; 22.1 µM in the assay with NCI-H226 lung. Also, the TGI is 22.9 µM in the assay with NCI-H23 lung, 42.3 µM in the assay with NCI/ADR-RES ovarian, 65.9 µM with PC-3 prostate and 0.21 µM with SF-295 CNS.
